Data published in US9271978B2 (Zenith Epigenetics Corp., priority 2012, dated 2016).

Key:
[1] = test system: human AML MV-4-11 (CRL-9591) cells; experiment: Inhibition of cell proliferation in MV4-11 cells; format: cell-based; design: key: Active: Compounds with an IC50 value less than 30 μM were deemed to be active.; Not Active: Compounds with an IC50 value less than 30 μM were deemed to be active; details: human AML MV-4-11 cells, 72 h; active = IC50 <30 μM
Method in brief: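 IC50 values come from blank-corrected proliferation relative to DMSO controls, read as 490 nm absorbance 3–4 h after CellTiter Aqueous One addition. Before that, cells seeded at 5×10^4/well were exposed for 72 h (37° C, 5% CO2) to triplicate two-fold compound dilutions spanning 30–0.2 μM.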

[2] = test system: ApoA-I mRNA; experiment: Up-regulation of hApoA-1 mRNA transcription in Huh7 cells; format: cell-based, human; design: key: Active: Compounds with an EC170 value less than 30 μM were deemed to be active; details: 48 h treatment, ApoA-I mRNA by real-time PCR, Active = EC170 less than 30 μM
Method in brief: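 Huh7 cells treated with compound for 48 h. ApoA-I mRNA was then quantified in captured mRNA by one-step real-time RT-PCR. Fold induction calculated from Ct values relative to the matching DMSO control; EC170 is the concentration for 170% of control expression.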

[3] = molecular target: T1, Brd4 bromodomain 1 (BRD4(1)) (Homo sapiens, UniProt O60885); experiment: Inhibition of tetra-acetylated histone H4 binding to Brd4 bromodomain 1 (TR-FRET); design: key: Active: Compounds with an IC50 value less than 30 μM were deemed to be active.; Not Active: Compounds with an IC50 value less than 30 μM were deemed to be active; details: tetra-acetylated histone H4 peptide, active = IC50 <30 μM
T1 construct: Illustrative results with the first bromodomain of Brd4; made in house; host or cells: E. coli BL21 (DE3)
Method in brief: (§1)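 IC50 values come from dose-response curves of the 665 nm to 620 nm TR-FRET signal decrease, measured after 2 h at room temperature. Reactions contained 200 nM E. coli-expressed His-tagged bromodomain, 25-50 nM biotinylated tetra-acetylated H4 peptide, Eu-streptavidin plus XL665 anti-His antibody, with 30 mM HEPES pH 7.4, 320 mM KF and 0.2% DMSO.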

[4] = molecular target: T2, second bromodomain of Brd2 (BRD2(2)) (Homo sapiens, UniProt P25440); experiment: Inhibition of tetra-acetylated histone H4 binding to Brd2 bromodomain 2 (TR-FRET); design: key: Active: Compounds with an IC50 value less than 30 μM were deemed to be active.; Not Active: Compounds with an IC50 value less than 30 μM were deemed to be active; details: tetra-acetylated histone H4 peptide, active = IC50 <30 μM
T2 construct: made in house; host or cells: E. coli BL21 (DE3)
Method in brief: as §1

[5] = test system: hIL-6 mRNA; experiment: Inhibition of hIL-6 mRNA transcription in U937 cells; format: cell-based, human; design: key: Active: Compounds with an IC50 value less than 30 μM were deemed to be active.; Not Active: Compounds with an IC50 value less than 30 μM were deemed to be active; details: LPS stimulation, active = IC50 <30 μM
Method in brief: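 Readout is one-step real-time PCR of hIL-6 mRNA, normalized to an internal control and given as fold induction versus control. Cells: PMA (60 ng/mL, 3 days)-differentiated U937 macrophages, compound added 1 h before 1 ug/mL LPS, harvested after 3 h at 37° C.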

[6] = test system: c-myc; experiment: Inhibition of c-myc expression in MV4-11 cells (mRNA, real-time PCR); format: cell-based; design: key: Active: Compounds with an IC50 value less than 30 μM were deemed to be active.; Not Active: Compounds with an IC50 value less than 30 μM were deemed to be active; details: Human AML MV4-11 cells, 3 h incubation
Method in brief: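 Duplex RT-qPCR of c-myc against cyclophilin cDNA gave IC50 from a dose–response curve. Input was isolated mRNA from 2.5×10^4 MV4-11 cells after 3 h exposure at 37 °C to compound or 0.1% DMSO vehicle.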

T2 sequence (P25440 344-453 limits assumed): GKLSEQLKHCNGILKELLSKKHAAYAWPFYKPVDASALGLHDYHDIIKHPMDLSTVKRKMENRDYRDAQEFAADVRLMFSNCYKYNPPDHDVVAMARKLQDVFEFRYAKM

Structure (SMILES)	Cell Proliferation activity (IC50 <30 μM) [1]	ApoA-1 activity (EC170 <30 μM) [2]	FRET activity (IC50 <30 μM) BRD4(1) [3]	FRET activity (IC50 <30 μM) BRD2(2) [4]	IL-6 activity (IC50 <30 μM) [5]	c-myc activity (IC50 <30 μM) [6]
Cc1noc(C)c1-c1ccc(=O)n(C(C)c2ccccc2)n1 (stereo not drawn) [Example 19, 6-(3,5-Dimethylisoxazol-4-yl)-2-(1-phenylethyl)pyridazin-3(2H)-one]	Active	Active	Active	Active	Active	Active
Cc1noc(C)c1-c1ccc(=O)n(Cc2ccc3[nH]ncc3c2)c1 [Example 148, 1-((1H-Indazol-5-yl)methyl)-5-(3,5-dimethylisoxazol-4-yl)pyridin-2(1H)-one]	Active	Active	Active	Active	Active	Active
COc1ccccc1Cn1cc(-c2c(C)noc2C)ccc1=O [Example 162, 5-(3,5-Dimethylisoxazol-4-yl)-1-(2-methoxybenzyl)pyridin-2(1H)-one]	Active	Active	Active	Active	Active	Active
Cc1noc(C)c1-c1ccc(=O)n(C(C)c2cccc(F)c2)c1 (stereo not drawn) [Example 104, 5-(3,5-Dimethylisoxazol-4-yl)-1-(1-(3-fluorophenyl)ethyl)pyridin-2(1H)-one]	Active	Active	Active	Active	Active	Active
Cc1noc(C)c1-c1ccc(=O)n(Cc2cccc3cccnc23)c1 [Example 47, 5-(3,5-Dimethylisoxazol-4-yl)-1-(quinolin-8-ylmethyl)pyridin-2(1H)-one]	Active	Active	Active	Active	Active	Active
COc1cc(-c2ccc(=O)n(Cc3ccccc3C#N)c2)cc(OC)c1OC [Example 53, 2-((2-Oxo-5-(3,4,5-trimethoxyphenyl)pyridin-1(2H)-yl)methyl)benzonitrile]	Active	Active	Active	Active	Active	Not Active
Cc1noc(C)c1-c1ccc(=O)n(CCOc2ccccc2)c1 [Example 51, 5-(3,5-Dimethylisoxazol-4-yl)-1-(2-phenoxyethyl)pyridin-2(1H)-one]	Not Active	Active	Active	Active	Active	Not Active
Cc1noc(C)c1-c1ccc(=O)n(C(C)c2ccc(Cl)cc2)c1 (stereo not drawn) [Example 105, 1-(1-(4-Chlorophenyl)ethyl)-5-(3,5-dimethylisoxazol-4-yl)pyridin-2(1H)-one]	Active	Active	Active	Active	Active	Active
Cc1noc(C)c1-c1ccc(=O)n(Cc2ccc(F)c(Cl)c2)c1 [Example 147, 1-(3-Chloro-4-fluorobenzyl)-5-(3,5-dimethylisoxazol-4-yl)pyridin-2(1H)-one]	Active	Active	Active	Active	Active	Active
CCC(c1ccccc1)n1cc(-c2c(C)noc2C)ccc1=O (stereo not drawn) [Example 43, 5-(3,5-Dimethylisoxazol-4-yl)-1-(1-phenylpropyl)pyridin-2(1H)-one]	Active	Active	Active	Active	Active	Active
Cc1noc(C)c1-c1ccc(=O)n(Cc2ccccc2)n1 [Example 14, 2-Benzyl-6-(3,5-dimethylisoxazol-4-yl)pyridazin-3(2H)-one]	Active	Active	Active	Active	Active	Not Active
Cc1noc(C)c1-c1ccc(=O)n(Cc2cccc3[nH]ccc23)c1 [Example 149, 1-((1H-Indol-4-yl)methyl)-5-(3,5-dimethylisoxazol-4-yl)pyridin-2(1H)-one]	Active	Active	Active	Active	Active	Active
COc1cc(Nc2ccc(=O)n(Cc3ccccc3)n2)cc(OC)c1OC [Example 54, 2-Benzyl-6-((3,4,5-trimethoxyphenyl)amino)pyridazin-3(2H)-one]	Active	Active	Active	Active	Active	Active
Cc1noc(C)c1-c1ccc(=O)n(Cc2ccc(C(N)=O)cc2)c1 [Example 13, 4-((5-(3,5-Dimethylisoxazol-4-yl)-2-oxopyridin-1(2H)-yl)methyl)benzamide]	Not Active	Active	Active	Active	Active	Not Active
Cc1noc(C)c1-c1ccc(=O)n(CC2CCC2)c1 [Example 49, 1-(Cyclobutylmethyl)-5-(3,5-dimethylisoxazol-4-yl)pyridin-2(1H)-one]	Active	Active	Active	Active	Active	Active
